Data reported in patent US20240216513A1, “FATTY ACID-BIFUNCTIONAL DEGRADER CONJUGATES AND THEIR METHODS OF USE” (Novartis AG, priority 2021, published 2024).

Experiments:
[1] = BTK FAC plasma stability assay, PBS buffer arm; assay type: physicochemical; settings: incubation to 24 h
In short: (§1)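 Stability in PBS buffer or EDTA-treated plasma is followed over 24 h at 38 °C with shaking. Protein precipitation with acetonitrile (glyburide 0.2 µM as internal standard) stops each timepoint, and LC-MS/MS gives analyte-to-standard area ratios.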

[2] = BTK FAC plasma stability assay, mouse plasma; assay type: in vitro ADME; settings: incubation to 24 h
In short: as §1

[3] = BTK FAC plasma stability assay, rat plasma; assay type: in vitro ADME; settings: incubation to 24 h
In short: as §1

[4] = BTK FAC plasma stability assay, dog plasma; assay type: in vitro ADME
[5] = In vivo pharmacokinetic study in mice (i.v. or s.c.), FAC and payload in blood; set-up: species or system mouse; settings: for AUC: male, C57/B16, whole blood
[6] = In vivo pharmacokinetic study in rats (i.v. or s.c.), FAC and payload in blood; set-up: species or system rat; settings: for AUC: male, Sprague-Dawley, rat, whole blood, 1 umol/kg
Experimental: Pharmacokinetic studies were conducted in male C57/B16 mice; male Sprague-Dawley rats; male Beagle dogs and male Cynomolgus monkeys. 3 animals per group were used for each study performed. All studies were performed in accordance with local animal welfare regulations.
[…] Serial 30 µL blood samples were collected via venipuncture of the tail vein in mouse, and via the cannulated jugular vein in rats at defined timepoints to 216 hours (into EDTA coated tubes).
Each blood sample was precipitated with acetonitrile containing internal standard; samples were mixed and centrifuged (20 minutes 4000 RPM at 4° C.). Supernatant was transferred to a microwell plate and evaporated under nitrogen at 60° C. Residue was resuspended in acetonitrile/water (7:3 v/v); plate sealed and transferred to an ultrasonic bath for 3 minutes, prior to analysis. Quantification was performed by LC-MS/MS (SciexAP16500 Q-trap, Shimadzu Nexera X2) using a Phenomenex Polar RP analytical column (2.5 μm particle size; 50×2 mm). The mobile phase consisted of solvent A (0.1% formic acid in water) and solvent B (0.1% formic acid in acetonitrile). The fatty acid conjugate and API were detected using multiple reaction monitoring.
Data analysis and calculation of non-compartmental pharmacokinetic parameters was
performed using an in-house analysis. Following intravenous administration whole blood clearance was calculated by the dose administered divided by AUC0-inf. Volume of distribution at steady state was calculated as MRT*CL, where MRT is the mean residence time, calculated by AUMC0-inf/AUC0-inf. The half-life (t1/2) of the terminal elimination phase was calculated by 0.693/λ. For both intravenous and subcutaneous administration, the systemic exposures were determined by calculating the area under the blood concentration time curve (AUC) from time zero to the last observed quantifiable concentration (AUClast) by using the linear trapezoidal method and normalised to dose. Extrapolated AUC (AUC0-inf) is calculated by addition of AUClast and AUCtlast-inf; where AUCtlast-inf is calculated based on Clast/λ. The slope of the terminal elimination phase was estimated by linear regression of the terminal data points (minimum 3 points) from a natural log concentration versus time plot of the data. Bioavailability was calculated as the dose normalized ratio of […] AUCinf to intravenous AUCinf (100*[SC AUCinf/SC dose]/[IV AUCinf/IV dose]). Following subcutaneous administration Cmax is calculated as the average maximum observed peak concentration and Tmax is the time associated with the determined Cmax.
For PK experiments, non-tumor bearing mice or rats were treated once (10 mL/kg) with a compound either i.v. or s.c. Serial blood samplings from the tail vein (5-20 μl) were collected during the course of the experiment. For PK/PD experiments in tumor-bearing mice, compound was administered once (10 mL/kg) either i.v. or s.c. Animals were randomized into groups of n=3 and tissue samples were collected at several time points. At the times indicated, animals were anaesthetized by exposure to 2-3% v/v isoflurane in medical oxygen. They were sacrificed without recovering from anesthetic after blood sampling into commercially prepared EDTA coated tubes (Milian, cat #TOM-14C) in order to extract plasma. The tissues were excised, weighted and rapidly frozen in liquid nitrogen. Later, tumors were cryogenic dry pulverized with the CryoPrep™ system (model CP-02, Covaris). For efficacy experiments in ectopic tumor-bearing mice, animals were randomized into groups of n=6 for a mean tumor size of 100 mm^3 and compound was administered either i.v. q3w or s.c. q2w. When implanted in brain, animals were randomized into groups of n=4 for a mean bioluminescence of 1.0-2.0E+06 [p/s]/[ρW/cm^2] and compound was administered i.v. qw. Tumor response were reported with the measures of tumor volumes or bioluminescence from the treatment start. […]

BTK C481S = target: T1, BTK C481S (Homo sapiens, UniProt Q06187, C481S); assay: PD screen in TMD8 BTK C481S mutant tumor-bearing mice, BTK levels and compound concentrations in blood and tumor; assay type: in vivo, mouse; settings: 20 mgL/kg (unconjugated V)
T1 construct: endogenous in cells; host or cells: TMD8 BTK C481S mutant tumour xenografts in mice
In short: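 Single compound injection in mice bearing TMD8 BTK C481S tumors, groups of 2, with blood and tumor sampled at day 0, 4, 7 and sometimes 10. Compound levels measured by UPLC/MS-MS and BTK levels by Meso Scale Discovery.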

T1 sequence (Q06187 whole entry C481S): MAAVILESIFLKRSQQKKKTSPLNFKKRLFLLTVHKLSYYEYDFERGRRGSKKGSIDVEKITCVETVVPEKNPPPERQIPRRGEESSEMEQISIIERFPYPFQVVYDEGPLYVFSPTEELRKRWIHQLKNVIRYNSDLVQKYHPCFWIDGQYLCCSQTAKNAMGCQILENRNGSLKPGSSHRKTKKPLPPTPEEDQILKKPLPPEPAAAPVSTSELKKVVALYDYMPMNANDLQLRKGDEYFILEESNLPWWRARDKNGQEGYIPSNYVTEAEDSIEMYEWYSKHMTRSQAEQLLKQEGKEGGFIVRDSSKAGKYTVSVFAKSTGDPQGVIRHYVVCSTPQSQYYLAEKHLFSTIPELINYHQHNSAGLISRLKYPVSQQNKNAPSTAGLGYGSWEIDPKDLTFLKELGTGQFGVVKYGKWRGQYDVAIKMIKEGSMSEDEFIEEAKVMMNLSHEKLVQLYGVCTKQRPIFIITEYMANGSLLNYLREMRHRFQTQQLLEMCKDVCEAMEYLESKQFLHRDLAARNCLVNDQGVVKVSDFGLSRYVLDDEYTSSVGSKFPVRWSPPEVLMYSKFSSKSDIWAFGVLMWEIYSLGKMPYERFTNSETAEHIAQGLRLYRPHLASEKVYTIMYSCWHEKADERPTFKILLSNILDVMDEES

Plasma stability (h) PBS [1]: >48 h
Plasma stability (h) mouse [2]: 27.1 h
Plasma stability (h) rat [3]: 39.3 h
Plasma stability (h) dog [4]: >48 h
Payload C0-uM (unconjugated degrader dosed, first payload cell) ([5]; API i.v., species taken as mouse, listed as note (1 umol/kg), head 10 umol/kg): 8.1 µM
AUC ([5]; iv, API i.v., species taken as mouse, listed as note (1 umol/kg), head 10 umol/kg, read-out: Payload AUC-uM.h (unconjugated degrader dosed, first payload cell)): 8.2 µM·h
AUC ([5]; sc, mouse, subcutaneous dosing, unconjugated Compound V at 1 umol/kg, read-out: Payload AUC): 8.2 µM·h
Payload C0-uM (unconjugated degrader dosed, second payload cell) ([6]; API i.v., species taken as rat, listed as note (1 umol/kg)): 1.1 µM
AUC ([6]; iv, API i.v., species taken as rat, listed as note (1 umol/kg), read-out: Payload AUC-uM.h (unconjugated degrader dosed, second payload cell)): 0.57 µM·h
AUC ([6]; sc, subcutaneous dosing, unconjugated Compound V at 1 umol/kg, read-out: Payload AUC): 0.57 µM·h
Duration of BTK degradation in mouse ≥90% (BTK C481S; i.v.): <4 days
Compound: COc1ccc(C(=O)N2CCC3(CCN(CCc4ccc(-c5cc6c(-c7cc(F)cc(NC(=O)c8ccc(C(C)(C)O)cc8F)c7C)ncnc6[nH]5)cc4)CC3)CC2)cc1N1CCC(=O)NC1=O [Compound V, N-(3-(6-(4-(2-(9-(3-(2,4-Dioxotetrahydropyrimidin-1(2H)-yl)-4-methoxybenzoyl)-3,9-diazaspiro[5.5]undecan-3-yl)ethyl)phenyl)-7H-pyrrolo[2,3-d]pyrimidin-4-yl)-5-fluoro-2-methylphenyl)-2-fluoro-4-(2-hydroxypropan-2-yl)benzamide]
Duration of BTK degradation in mouse ≥90% (days) (BTK C481S; s.c.): Not tolerated
